According to patent US20120016019A1, “PHARMACEUTICAL COMPOSITION FOR TREATING OR PREVENTING CANCER” (priority 2010, published 2012):
Values joined by “and” are separate entries in the source; they are usually repeats but may differ in a detail not shown here. Equal values may be shown once. Read-outs that look alike come from different tables or passages of the source.

How the values were obtained:
TT [1] = assay: Viability by trypan blue staining, TT; assay type: cell-based; settings: for viability (%) calculated from the cell counts: single value
SKBR3 = settings: human, 220 nM
Description: (§1) Cells were plated into 48-well Corning CellBind™ plates at densities of 20,000 cells for normal cells and 10,000˜20,000 cells for cancer cells. 24 to 48 h after plating, cells were treated with the composition according to the invention at concentrations of 4.5e-2M. The first time point treated with the composition of the invention is 0 h. At 3 days after the first treatment with the composition of the invention, medium was changed and the composition of the invention at the same concentrations were added to the cultured cells.
(§2) Cells were harvested using Trypsin-EDTA at the designated time points. When total cells for each well were counted with a Beckman-Coulter Z1 Particle Characterization Unit, the vertical axis represents 1/20 of cell number in the Figures attached to the specification, while when counted with a Beckman-Coulter Vi-Cell, the vertical axis represents cell number in the Figures. Two 48-well plates were used per cell line, and they were measured at 0 h, 12 h, 24 h, 48 h, 4 d and 7 d, respectively.
(§3) The viability was determined by using the trypan blue staining in the well of cell counting.

HeLa = settings: human, 0 h, 220 nM
Description: as §1, §2, §3

RKO = settings: human, 220 nM
Description: as §1, §2, §3

MDA-MB-231 = settings: human, 0 h, 220 nM
Description: as §1, §2, §3

HCC 1419 = assay: Cell counts, HCC 1419; assay type: cell-based; settings: for cell counts: single wells
Description: Cells were plated into 48-well Corning CellBind™ plates at densities of 20,000 cells for normal cells and 10,000˜20,000 cells for cancer cells. […] The first time point treated with the composition of the invention is 0 h.
(§7) Cells were harvested using Trypsin-EDTA at the designated time points. […] Two 48-well plates were used per cell line, and they were measured at 0 h, 12 h, 24 h, 48 h, 4 d and 7 d, respectively.
(§8) In the 1st plate, cells were treated with the composition according to the invention and medium was changed at 0 h and 3 d. […] As a result, LC-50 curves were generated in the 1st week.
(§9) At 0 h of the 2nd week, medium was exchanged with untreated medium for the remainder of the experiment. The untreated controls were not measured in the 2nd week (recovery) due to overconfluence by the end of the 1st week. As a result, Recovery curves were generated in the 2nd week.

CCD-1074sk = assay type: cell-based; settings: for cell counts: single count
Description: (§4) As a result, LC-50 curves were generated in the 1st week.
(§5) In the 2nd plate, 7 d of the 1st week (LC-50) is the same as 0 h of the 2nd week (recovery).
(§6) At 0 h of the 2nd week, medium was exchanged with untreated medium for the remainder of the experiment. […] As a result, Recovery curves were generated in the 2nd week.

TT [2] = assay: Cell counts, TT; assay type: cell-based
Description: as §4, §5, §6

C-6 = assay: Cell counts, C-6; assay type: cell-based, rat
Description: Cancer cell lines HCC 1419, MCF-7, MDA-MB-468, SKBR3, PC3, HT1299, Saos-2, C-6, AsPc, MDA-MB-231, RKO, HeLa and TT, and normal cell lines HME 50 HT, BJ and CCD-1074sk were tested for changes in metabolism (XTT assay) and cell death (cell counts).
as §8, §9
C-6 is glioblastoma cells.

PC-3 = assay: Cell counts, PC-3; assay type: cell-based, human; settings: for cell counts: single wells
Description: as §7
In the 1st plate, cells were treated with the composition according to the invention and medium was changed at 0 h and 3 d.
At 0 h of the 2nd week, medium was exchanged with untreated medium for the remainder of the experiment. The untreated controls were not measured in the 2nd week (recovery) due to overconfluence by the end of the 1st week.

`CC(=O)O[C@H]1C(=O)[C@@]2(C)[C@H]([C@H](OC(=O)c3ccccc3)[C@]3(O)C[C@H](OC(=O)[C@H](O)[C@@H](NC(=O)c4ccccc4)c4ccccc4)C(C)=C1C3(C)C)[C@]1(OC(C)=O)CO[C@@H]1C[C@@H]2O` [Taxol] was tested, and the “viability (%)” value (TT [1]; 1st week (LC50), 0 h) was 79.5% and 80.8% and 78.4%, the “viability (%), Mean value” (TT [1]; 1st week (LC50), 0 h) was 79.6% and the “viability (%)” value (TT [1]; 1st week (LC50), 24 h) was 76.5% and 64.7% and 72.7%. The “viability (%), Mean value” (TT [1]; 1st week (LC50), 24 h) was 71.3%, the “viability (%)” value (TT [1]; 1st week (LC50), 48 h) was 72.5% and 72% and 76.9% and the “viability (%), Mean value” (TT [1]; 1st week (LC50), 48 h) was 73.8%. The “viability (%)” value (TT [1]; 1st week (LC50), 4 d) was 70.1%, the “viability (%), Mean value” (TT [1]; 1st week (LC50), 4 d) was 67.8% and the “viability (%)” value (TT [1]; 1st week (LC50), 7 d) was 75% and 37.5%. For the same molecule, the “viability (%), Mean value” (TT [1]; 1st week (LC50), 7 d) was 59.7%, the “viability (%), Mean value” (TT [1]; 2nd week (recovery), 0 h, trypan blue, mean value) was 65% and the “viability (%) calculated from the cell counts” value (“viability (%) calculated” below) (TT [1]; 2nd week (recovery), 0 h, trypan blue) was 70% and 75% and 50%. For the same molecule, the “viability (%), Mean value” (TT [1]; 2nd week (recovery), 24 h, trypan blue, mean value) was 41.1%, the “viability (%), Mean value” (TT [1]; 2nd week (recovery), 48 h, trypan blue, mean value) was 35.1% and the “viability (%), Mean value” (TT [1]; 2nd week (recovery), 4 d, trypan blue, mean value) was 37.6%. The “viability (%), Mean value” (TT [1]; 2nd week (recovery), 7 d, trypan blue, mean value) was 33.5%, the “viability (%) calculated” value (TT [1]; 2nd week (recovery), 7 d, trypan blue) was 25% and 42.3% and the “viability (%), Mean value” (SKBR3; 24 h) was 70%. For the same molecule, the “viability (%) calculated” value (SKBR3; 48 h) was 0%, the “viability (%), Mean value” (SKBR3; 48 h) was 17% and the “viability (%) calculated” value (SKBR3; 4 d) was 0%. The “viability (%), Mean value” (SKBR3; 4 d) was 33%, the “viability (%), Mean value” (SKBR3; 7 d) was 50% and the “viability (%), Mean value” (HeLa) was 75.4%. For the same molecule, the “viability (%), Mean value” (RKO; 0 h) was 40%, the “viability (%), Mean value” (RKO; 24 h) was 43% and the “viability (%), Mean value” (MDA-MB-231) was 44.2%. The “growth pattern of the cells in the well (microscopy)” value (HCC 1419) was “growing in a diffuse, spreading pattern over the whole well”, the “number of cancer cells (course)” value (HCC 1419; 1st week (LC50) and 2nd week (recovery)) was “did not decreased any more and was maintained” and the “cell counts, Mean value” (HCC 1419; 1st week (LC50), 0 h) was 3156. The cell counts (HCC 1419; 1st week (LC50), 0 h) was 3055 and 2626 and 3788, the “cell counts, Mean value” (HCC 1419; 1st week (LC50), 12 h) was 3479 and the cell counts (HCC 1419; 1st week (LC50), 12 h) was 3434 and 3451 and 3553. The “cell counts, Mean value” (HCC 1419; 1st week (LC50), 24 h) was 3036, the cell counts (HCC 1419; 1st week (LC50), 24 h) was 2957 and 3488 and 2664 and the “cell counts, Mean value” (HCC 1419; 1st week (LC50), 48 h) was 2978. The cell counts (HCC 1419; 1st week (LC50), 48 h) was 2232 and 3502 and 3199, the “cell counts, Mean value” (HCC 1419; 1st week (LC50), 4 d) was 2544 and the cell counts (HCC 1419; 1st week (LC50), 4 d) was 1716 and 2940 and 2975. The “cell counts, Mean value” (HCC 1419; 1st week (LC50), 7 d) was 1741, the cell counts (HCC 1419; 1st week (LC50), 7 d) was 1718 and 1710 and 1794 and the “cell counts, Mean value” (HCC 1419; 2nd week (recovery), 0 h) was 8878. For the same molecule, the cell counts (HCC 1419; 2nd week (recovery), 0 h) was 8472 and 8522 and 9639, the cell counts (HCC 1419; 2nd week (recovery), 24 h) was 7966 and the cell counts (HCC 1419; 2nd week (recovery), 48 h) was 4901. For the same molecule, the cell counts (HCC 1419; 2nd week (recovery), 7 d) was 7316 and 3792, the “cell counts, Mean value” (CCD-1074sk; 1st week (LC50), 0 h) was 8000 and the cell counts (CCD-1074sk; 1st week (LC50), 0 h) was 9000 and 7000. The “cell counts, Mean value” (CCD-1074sk; 1st week (LC50), 24 h) was 15500, the cell counts (CCD-1074sk; 1st week (LC50), 24 h) was 15000 and 16000 and the “cell counts, Mean value” (CCD-1074sk; 1st week (LC50), 48 h) was 10500. For the same molecule, the cell counts (CCD-1074sk; 1st week (LC50), 48 h) was 10000 and 11000, the “cell counts, Mean value” (CCD-1074sk; 1st week (LC50), 4 d) was 4500 and the cell counts (CCD-1074sk; 1st week (LC50), 4 d) was 6000 and 3000. For the same molecule, the “cell counts, Mean value” (CCD-1074sk; 1st week (LC50), 7 d) was 11500, the cell counts (CCD-1074sk; 1st week (LC50), 7 d) was 11000 and 12000 and the “cell counts, Mean value” (CCD-1074sk; 2nd week (recovery), 0 h) was 10500. For the same molecule, the cell counts (CCD-1074sk; 2nd week (recovery), 0 h) was 10000 and 11000, the “cell counts, Mean value” (CCD-1074sk; 2nd week (recovery), 48 h) was 8000 and the cell counts (CCD-1074sk; 2nd week (recovery), 48 h) was 10000 and 6000. For the same molecule, the “cell counts, Mean value” (CCD-1074sk; 2nd week (recovery), 4 d) was 5500, the cell counts (CCD-1074sk; 2nd week (recovery), 4 d) was 4000 and 7000 and the cell counts (CCD-1074sk; 2nd week (recovery), 7 d) was 18000 and 9000. The cell counts (TT [2]; 1st week (LC50), 0 h) was 133000 and 117500 and 123000, the “cell counts, Mean value” (TT [2]; 1st week (LC50), 0 h) was 124500 and the “cell counts, Mean value” (TT [2]; 1st week (LC50), 24 h) was 106333. For the same molecule, the cell counts (TT [2]; 1st week (LC50), 48 h) was 175000 and 109000 and 114000, the “cell counts, Mean value” (TT [2]; 1st week (LC50), 48 h) was 132667 and the cell counts (TT [2]; 1st week (LC50), 4 d) was 84000 and 72500 and 56000. For the same molecule, the “cell counts, Mean value” (TT [2]; 1st week (LC50), 4 d) was 70833, the cell counts (TT [2]; 1st week (LC50), 7 d) was 35000 and 26000 and the “cell counts, Mean value” (TT [2]; 1st week (LC50), 7 d) was 32000. The “cell counts, Mean value” (TT [2]; 2nd week (recovery), 0 h, mean value) was 44000, the cell counts (TT [2]; 2nd week (recovery), 0 h, single count) was 44000 and 53000 and 35000 and the “cell counts, Mean value” (TT [2]; 2nd week (recovery), 24 h, mean value) was 17667. The “cell counts, Mean value” (TT [2]; 2nd week (recovery), 48 h, mean value) was 30667, the cell counts (TT [2]; 2nd week (recovery), 48 h, single count) was 35000 and 31000 and 26000 and the “cell counts, Mean value” (TT [2]; 2nd week (recovery), 4 d, mean value) was 16667. The cell counts (TT [2]; 2nd week (recovery), 4 d, single count) was 15000 and 12500, the “cell counts, Mean value” (TT [2]; 2nd week (recovery), 7 d, mean value) was 11500 and the cell counts (C-6; 1st week (LC50), 0 h) was 6111 and 7077 and 4897. The “cell counts, Mean value” (C-6; 1st week (LC50), 0 h) was 6028, the cell counts (C-6; 1st week (LC50), 12 h) was 3726 and 4240 and the “cell counts, Mean value” (C-6; 1st week (LC50), 12 h) was 4469. The cell counts (C-6; 1st week (LC50), 24 h) was 3895 and 3853 and 3340, the “cell counts, Mean value” (C-6; 1st week (LC50), 24 h) was 3696 and the cell counts (C-6; 1st week (LC50), 48 h) was 6630 and 6722. For the same molecule, the “cell counts, Mean value” (C-6; 1st week (LC50), 48 h) was 6243, the cell counts (C-6; 1st week (LC50), 4 d) was 6026 and 6751 and 6905 and the “cell counts, Mean value” (C-6; 1st week (LC50), 4 d) was 6561. For the same molecule, the “cell counts, Mean value” (C-6; 1st week (LC50), 7 d) was 4450, the cell counts (C-6; 2nd week (recovery), 0 h) was 2984 and 3948 and 4207 and the “cell counts, Mean value” (C-6; 2nd week (recovery), 0 h) was 3713. For the same molecule, the cell counts (C-6; 2nd week (recovery), 24 h) was 3392 and 4285 and 3984, the “cell counts, Mean value” (C-6; 2nd week (recovery), 24 h) was 3887 and the cell counts (C-6; 2nd week (recovery), 48 h) was 3166 and 3930. The “cell counts, Mean value” (C-6; 2nd week (recovery), 48 h) was 4184, the cell counts (C-6; 2nd week (recovery), 4 d) was 4825 and 3184 and the “cell counts, Mean value” (C-6; 2nd week (recovery), 4 d) was 4031. For the same molecule, the cell counts (C-6; 2nd week (recovery), 7 d) was 3989 and 4316 and 3634, the “cell counts, Mean value” (C-6; 2nd week (recovery), 7 d) was 3980 and the “response of the cells” value (C-6; composition: after 4 days of exposure) was “resistance to Taxol”. The “killing of PC-3 cells” value (PC-3) was “relatively resistant to Taxol”, the “cell counts, Mean value” (PC-3; 1st week (LC50), 0 h) was 6580 and the “cell counts, Mean value” (PC-3; 1st week (LC50), 12 h) was 5462. The cell counts (PC-3; 1st week (LC50), 12 h) was 4805 and 5805 and 5775, the “cell counts, Mean value” (PC-3; 1st week (LC50), 24 h) was 5205 and the cell counts (PC-3; 1st week (LC50), 24 h) was 4360 and 4820 and 6435. For the same molecule, the “cell counts, Mean value” (PC-3; 1st week (LC50), 48 h) was 2013, the cell counts (PC-3; 1st week (LC50), 48 h) was 1821 and 1969 and the “cell counts, Mean value” (PC-3; 1st week (LC50), 4 d) was 1029. For the same molecule, the cell counts (PC-3; 1st week (LC50), 4 d) was 861 and 975 and 1250, the “cell counts, Mean value” (PC-3; 2nd week (recovery), 0 h) was 514 and the cell counts (PC-3; 2nd week (recovery), 0 h) was 392 and 389 and 760. The “cell counts, Mean value” (PC-3; 2nd week (recovery), 24 h) was 305, the cell counts (PC-3; 2nd week (recovery), 24 h) was 269 and 328 and 318 and the “cell counts, Mean value” (PC-3; 2nd week (recovery), 48 h) was 350. For the same molecule, the cell counts (PC-3; 2nd week (recovery), 48 h) was 369 and 303 and 378, the “cell counts, Mean value” (PC-3; 2nd week (recovery), 4 d) was 1324 and the cell counts (PC-3; 2nd week (recovery), 4 d) was 1574 and 1376 and 1023. The “cell counts, Mean value” (PC-3; 2nd week (recovery), 7 d) was 483.
